One data set addresses IRAK4 (Homo sapiens (Human), UniProt Q9NWZ3). In words: IRAK4 Inhibition Assay. Type of data set: biochemical. The conditions noted are these: ATP 500 μM; IRAK4 0.6 nM. In short, it runs like this: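 Mobility-shift readout: phosphorylated and unphosphorylated fluorescent peptide (1.5 μM) resolved by electrophoresis after a 60 min room-temperature reaction stopped with EDTA. Reaction holds 0.6 nM IRAK4, 500 μM ATP and 1.6% DMSO in HEPES pH 7.2/MgCl2/Brij 35/DTT buffer; percent inhibition set against vehicle and no-enzyme controls.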

The nature of data set [1]: Caco-2 Permeability Assay. Format: in vitro ADME. The following applies: human, Caco-2, test compound 3 μM. As for the experimental part: Caco-2 Permeability Assay
Thirteen to 27 days prior to assay, Caco-2 cells were seeded onto collagen-coated polycarbonate filter membranes in 24-well transwell plates at a density of 1.45×10^5 cells/cm^2, approximately 4.8×10^4 cells per well. The cells were grown in a culture medium consisting of DMEM supplemented with 10% fetal bovine serum, 10 mM HEPES, 1% nonessential amino acids, 2 mM L-glutamine, 100 U/mL penicillin-G, and 100 μg/mL streptomycin. The culture medium was replaced every 3 days and the cells were maintained at 37° C. in a 95% relative humidity and 5% CO2 atmosphere. The cells were evaluated for tight junction formation just prior to assay. The test compound was solubilized to 10 mM in 100% DMSO and diluted to 3 μM in assay buffer. Permeability studies were initiated by adding 200 μL assay buffer plus/minus compound to the apical transwell compartment and 600 μL assay buffer plus/minus compound to the basolateral compartment of the 24-well transwell low-binding cluster plate. For apical-to-basolateral (A to B) permeability (absorptive direction), buffer containing compound was placed in the apical compartment (donor wells), while buffer alone was placed in the corresponding basolateral compartments (receiver wells). For basolateral-to-apical (B to A) permeability (secretive direction), buffer containing compound was placed in the basolateral compartment (donor wells), while buffer alone was placed in the corresponding apical compartments (receiver wells). Transwells were then incubated for 2 hours at 37° C. in a 95% relative humidity and 5% CO2 atmosphere with gentle agitation. Following incubation, 100 μL was removed from each apical and basolateral compartment and transferred to 96-well low binding plates that had been previously loaded with 100 μL/well of acetonitrile containing 250 nM propranolol, 250 nM diclofenac, and 500 nM tolbutamide as internal standards. The samples were subsequently analyzed by LC-MS/MS to determine concentrations of compound.
In general terms: Caco-2 cells form a polarised layer with tight junctions and transporters.

In data set [2] the test system is Human whole blood stimulated with a TLR2 agonist (lipoteichoic acid), IL-6 levels. In words: IRAK4 Whole Blood Assay. The following applies: lipoteichoic acid 10 μg/mL. Format: cell-based. Put shortly:
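ACD-A-anticoagulated human whole blood was preincubated with compounds for 60 min at 37 °C under 5% CO2. It was then stimulated with 10 μg/mL lipoteichoic acid (final) in RPMI for 5 h. IL-6 in plasma supernatants was measured by flow cytometry bead assay.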

Chain of IRAK4 (Q9NWZ3 whole entry, species assumed): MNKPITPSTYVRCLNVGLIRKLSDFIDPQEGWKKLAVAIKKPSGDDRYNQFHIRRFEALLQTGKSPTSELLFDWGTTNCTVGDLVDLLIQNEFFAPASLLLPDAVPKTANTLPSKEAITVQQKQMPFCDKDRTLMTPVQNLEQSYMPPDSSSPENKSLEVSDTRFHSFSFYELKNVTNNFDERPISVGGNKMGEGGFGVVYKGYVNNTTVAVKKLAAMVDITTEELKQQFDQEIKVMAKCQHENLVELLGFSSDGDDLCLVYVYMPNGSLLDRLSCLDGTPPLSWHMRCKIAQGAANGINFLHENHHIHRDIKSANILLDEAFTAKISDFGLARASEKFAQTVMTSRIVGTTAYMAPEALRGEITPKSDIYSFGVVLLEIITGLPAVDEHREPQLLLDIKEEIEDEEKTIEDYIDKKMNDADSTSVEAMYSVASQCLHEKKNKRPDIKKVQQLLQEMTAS

What is called IC50 is the midpoint of a concentration-inhibition curve. As a reminder, the Papp is the rate of passage across a membrane or cell layer, normalised by area and donor concentration. A lower Papp goes with poor permeation. What is called EC50 is the concentration that produces a half-maximal response. A high value points to a less potent agent. For `CC(C)Nc1cc(-n2ncc3cc(C#N)cnc32)ncc1-c1cn(CC2CC2(F)F)nn1` (single isomer, unassigned) [Example 31, 1-(5-(1-((2,2-difluorocyclopropyl)methyl)-1H-1,2,3-triazol-4-yl)-4-(isopropylamino)pyridin-2-yl)-1H-pyrazolo[3,4-b]pyridine-5-carbonitrile], the IC50 on IRAK4 was found to be 7 nM. In data set [1], this compound registered a Papp at 2 h, 3 µM of 15.9 ×10⁻⁶ cm/s. The compound also yielded an EC50 in data set [2] of 1970 nM.

In the case of `CC(C)Nc1cc(-n2ncc3cc(C#N)cnc32)ncc1-c1cn([C@H](C)[C@H](C)O)nn1` (single isomer, unassigned) [Example 88], the IC50 at IRAK4 is 5 nM. In data set [1], the Papp at 2 h, 3 µM was found to be 7.1 ×10⁻⁶ cm/s. Also, the EC50 in data set [2] (Homo sapiens) came to 1290 nM.

For `CC(C)Nc1cc(-n2ncc3cc(C#N)cnc32)ncc1-c1cn([C@@H](C)[C@H](C)O)nn1` (single isomer, unassigned) [Example 90], at IRAK4, the half-inhibitory concentration (IC50) amounted to 4 nM. In data set [1], the Papp at 2 h, 3 µM came out at 10.1 ×10⁻⁶ cm/s. The EC50 in data set [2] was determined as 170 nM.

As for `CCC(C)(O)Cn1cc(-c2cnc(-n3ncc4cc(C#N)cnc43)cc2NC(C)C)nn1` (single isomer, unassigned) [Example 92, 1-(5-(1-(2-hydroxy-2-methylbutyl)-1H-1,2,3-triazol-4-yl)-4-(isopropylamino)pyridin-2-yl)-1H-pyrazolo[3,4-b]pyridine-5-carbonitrile], on IRAK4, the IC50 worked out at 11 nM. This compound showed an apparent permeability coefficient (Papp) at 2 h, 3 µM in data set [1] of 12.4 ×10⁻⁶ cm/s. In data set [2], this compound registered an EC50 of 1120 nM.

For `CC(=O)N1CC[C@@H](n2cc(-c3cnc(-n4ncc5cc(C#N)cnc54)cc3NC(C)C)nn2)[C@H](O)C1` (single isomer, unassigned) [Example 197, 1-(5-(1-((trans)-1-acetyl-3-hydroxypiperidin-4-yl)-1H-1,2,3-triazol-4-yl)-4-(isopropylamino)pyridin-2-yl)-1H-pyrazolo[3,4-b]pyridine-5-carbonitrile], the half-maximal inhibitory concentration (IC50) on IRAK4 is 3 nM. For the same compound, the Papp at 2 h, 3 µM in data set [1] was less than 1.5 ×10⁻⁶ cm/s. The compound also gave a 50% effective concentration (EC50) in data set [2] (Homo sapiens) of 170 nM.

Take `CC(=O)N1CC[C@@H](n2cc(-c3cnc(-n4ncc5cc(C#N)cnc54)cc3NC(C)C)nn2)[C@H](O)C1` (single isomer, unassigned) [Example 203]: the IC50 at IRAK4 amounted to 4 nM. In data set [1], this compound gave a Papp at 2 h, 3 µM of less than 1.5 ×10⁻⁶ cm/s. The response in data set [2] (Homo sapiens) was half-maximal at 720 nM (EC50).

As to `CC(C)Nc1cc(-n2ncc3cc(C#N)cnc32)ncc1-c1cn([C@@H]2CCN(C(=O)C(C)(C)C)C[C@H]2O)nn1` (single isomer, unassigned) [Example 206], on IRAK4, the IC50 came out at 3 nM. The Papp at 2 h, 3 µM in data set [1] was 2 ×10⁻⁶ cm/s. For the same compound, the EC50 in data set [2] (Homo sapiens) turned out to be 1900 nM.

Consider `CC(C)Nc1cc(-n2ncc3cc(C#N)cnc32)ncc1-c1cn([C@@H]2CCN(S(C)(=O)=O)C[C@H]2F)nn1` (single isomer, unassigned) [Example 210, 1-(5-(1-((trans)-3-fluoro-1-(methylsulfonyl)piperidin-4-yl)-1H-1,2,3-triazol-4-yl)-4-(isopropylamino)pyridin-2-yl)-1H-pyrazolo[3,4-b]pyridine-5-carbonitrile], for which the half-maximal inhibitory concentration (IC50) on IRAK4 came out at 2 nM. This compound registered a Papp at 2 h, 3 µM in data set [1] of 4.3 ×10⁻⁶ cm/s. The 50% effective concentration (EC50) in data set [2] (Homo sapiens) was 510 nM.

In the case of `CC(F)Cc1cn(-c2cnc(-n3ncc4cc(C#N)cnc43)cc2NC(C)C)nn1` (single isomer, unassigned) [Example 289, 1-(5-(4-(2-fluoropropyl)-1H-1,2,3-triazol-1-yl)-4-(isopropylamino)pyridin-2-yl)-1H-pyrazolo [3,4-b]pyridine-5-carbonitrile], on IRAK4, the half-inhibitory concentration (IC50) was 6 nM. Besides, the Papp at 2 h, 3 µM in data set [1] was found to be 47.4 ×10⁻⁶ cm/s. In addition, it took 200 nM to reach a half-maximal effect in data set [2] (Homo sapiens) (EC50).

In the case of `CC(C)(O)CCc1cn(-c2cnc(-n3ncc4cc(C#N)cnc43)cc2NC2CCC(F)(F)C2)nn1` (single isomer, unassigned) [Example 347, 1-(4-((3,3-difluorocyclopentyl)amino)-5-(4-(3-hydroxy-3-methylbutyl)-1H-1,2,3-triazol-1-yl)pyridin-2-yl)-1H-pyrazolo[3,4-b]pyridine-5-carbonitrile], at IRAK4, the IC50 is 2 nM. In data set [1], the Papp at 2 h, 3 µM came out at 9.7 ×10⁻⁶ cm/s. It took 430 nM to reach a half-maximal effect in data set [2] (Homo sapiens) (EC50).

The record behind these values is US10294229B2, “Heteroaryl substituted aminopyridine compounds” (BRISTOL-MYERS SQUIBB COMPANY, priority 2015, dated 2019).
